The record followed here is patent US20230339970A1, “CASEIN KINASE 1 DELTA MODULATORS” (priority 2020, published 2023).

For assay [1], the target named is T1, human CSNK1D (Homo sapiens, UniProt P48730).
T1 construct: expressed in transfected cells
The assay can be described thus: Whole Cell nBRET CSNK1D Binding Assay. The note with it: living CHO cells stably expressing human CSNK1D tagged with nanoluciferase; NanoBret tracer 130 nM; 2 hours at 37 C.

Assay [2] deals with T2, human recombinant GST cleaved CSNK1D (Homo sapiens, UniProt P48730).
T2 construct: GST (cleaved yes); purchased University of Dundee clone DU 19064
The assay can be described thus: Purified Enzyme Assay (ADP-Glo CSNK1D Kinase Assay). The class given is biochemical. The note with it: 2 nM CSNK1D; peptide substrate 150 μM; ATP 20 μM; 45 minutes at room temperature. How it is done: In this assay, CSNK1D phosphorylates a substrate peptide PLSRTL-pS-VASLPGL in the presence of ATP. […] This assay monitors CSNK1D kinase activity by measuring the amount of ADP produced in the assay.
The substrate mix is added to each well of a low volume, 384-well, white opaque plate. Test compounds were diluted in HBSS and added in a dose-response to the plate.
The total volume of each reaction is 5 ul (2 μL of substrate mix, 1 μL of diluted compounds, and 2 μL of human recombinant CSNK1D). The plates are incubated for 45 minutes at room temperature.
ADP was quantified using the ADP-Glo™ Kinase Assay. ADP-Glo Reagent (5 μL) was added to each well. After a 1 hour incubation at room temperature, Kinase Detection Reagent (10 μL) was added to each well and incubated for 30 minutes. […] The raw data from the Envision is used to calculate percent activity.

Each structure is given as a SMILES string.

T2 sequence (P48730 whole entry): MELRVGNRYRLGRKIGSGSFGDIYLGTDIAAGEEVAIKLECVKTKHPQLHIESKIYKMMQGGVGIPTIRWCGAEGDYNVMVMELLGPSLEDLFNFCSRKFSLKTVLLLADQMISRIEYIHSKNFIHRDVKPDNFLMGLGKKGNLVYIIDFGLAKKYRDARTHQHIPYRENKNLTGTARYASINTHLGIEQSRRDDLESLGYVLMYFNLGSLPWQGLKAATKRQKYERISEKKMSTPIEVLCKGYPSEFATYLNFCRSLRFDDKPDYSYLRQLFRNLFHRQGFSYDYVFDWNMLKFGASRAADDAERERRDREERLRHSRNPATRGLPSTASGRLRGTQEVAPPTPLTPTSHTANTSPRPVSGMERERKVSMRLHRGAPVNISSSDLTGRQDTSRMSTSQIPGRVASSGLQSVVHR
T1 sequence (P48730 whole entry): as above

As to `CC1(CF)CCc2c(-c3ccnc(N)c3)c(-c3ccc(F)cn3)nn2C1` (single isomer, unassigned) [Example 286, (*S)-4-[6-(Fluoromethyl)-2-(5-fluoro-2-pyridyl)-6-methyl-5,7-dihydro-4H-pyrazolo[1,5-a]pyridin-3-yl]pyridin-2-amine], the IC50 in assay [1] stood at 81 nM; in assay [2], 4 nM.
The corresponding values for `[2H]C([2H])([2H])[C@]1(C#N)CCc2c(-c3ccnc4[nH]ncc34)c(-c3ccc(F)cn3)nn2C1` (single isomer, unassigned) [Example 323, *S-2-(5-Fluoropyridin-2-yl)-6-(methyl-d3)-3-(1H-pyrazolo[3,4-b]pyridin-4-yl)-4,5,6,7-tetrahydropyrazolo[1,5-a]pyridine-6-carbonitrile] are 15 nM and 1 nM.
For the molecule `Fc1ccc(-c2nn3c(c2-c2ccnc4[nH]ccc24)COCC3)cc1` [Example 69, 2-(4-Fluorophenyl)-3-(1H-pyrrolo[2,3-b]pyridin-4-yl)-6,7-dihydro-4H-pyrazolo[5,1-c][1,4]oxazine], the IC50 in assay [1] came to 43 nM; in assay [2], 7 nM.
The corresponding values for `Fc1cc(-c2nn3c(c2-c2ccnc4[nH]ncc24)COCC3)ccc1Cl` [Example 72, 2-(4-Chloro-3-fluoro-phenyl)-3-(1H-pyrazolo[3,4-b]pyridin-4-yl)-6,7-dihydro-4H-pyrazolo[5,1-c][1,4]oxazine] are 482 nM and 54 nM.
The corresponding values for `Cc1cc(-c2c(-c3ccc(F)cc3)nn3c2CC(C)(C)C3)c2cn[nH]c2n1` [Example 232, 4-[2-(4-Fluorophenyl)-5,5-dimethyl-4,6-dihydropyrrolo[1,2-b]pyrazol-3-yl]-6-methyl-1H-pyrazolo[3,4-b]pyridine] are 3 nM and 1 nM.
Regarding `CC(=O)Nc1cc(-c2c(-c3ccc(F)cc3)nn3c2CCC2C3C2(F)F)ccn1` (racemic) [Example 348, N-(4-(6,6-Difluoro-2-(4-fluorophenyl)-5,5a,6,6a-tetrahydro-4H-cyclopropa[e]pyrazolo[1,5-a]pyridin-3-yl)pyridin-2-yl)acetamide], the results for the IC50 in assay [1] and in assay [2] were 3 nM and 1 nM, respectively.
The corresponding values for `CC1(C)Cn2nc(-c3ccc(F)cn3)c(-c3ccn4ncc(Cl)c4c3)c2CO1` [Example 384, 3-(3-Chloropyrazolo[1,5-a]pyridin-5-yl)-2-(5-fluoropyridin-2-yl)-6,6-dimethyl-6,7-dihydro-4H-pyrazolo[5,1-c][1,4]oxazine] are 171 nM and 15 nM.
Regarding `Cc1cc(-c2c(-c3ncc(F)cc3F)nn3c2CCCC3)c2cn[nH]c2n1` [Example 37, 4-[2-(3,5-Difluoro-2-pyridyl)-4,5,6,7-tetrahydropyrazolo[1,5-a]pyridin-3-yl]-6-methyl-1H-pyrazolo[3,4-b]pyridine], the IC50 is 210 nM in assay [1] and 11 nM in assay [2].
Take `COCC1CCc2c(-c3cc(C)nc4[nH]ncc34)c(-c3ccc(F)cn3)nn2C1` (single isomer, unassigned) [Example 296, (*S)-4-[2-(5-Fluoro-2-pyridyl)-6-(methoxymethyl)-4,5,6,7-tetrahydropyrazolo[1,5-a]pyridin-3-yl]-6-methyl-1H-pyrazolo[3,4-b]pyridine]: the figures for the IC50 in assay [1] and in assay [2] were 240 nM and 17 nM, respectively.
In the same order, the values of `Cc1cc(-c2c(-c3ccc(F)cc3)nn3c2[C@H]2CC[C@@H]3C2)c2cn[nH]c2n1` (single isomer, unassigned) [Example 365, (4*S,7*R)-2-(4-Fluorophenyl)-3-(6-methyl-1H-pyrazolo[3,4-b]pyridin-4-yl)-4,5,6,7-tetrahydro-4,7-methanopyrazolo[1,5-a]pyridine] are 8 nM and 1 nM.
The corresponding values for `C[C@@]1(CF)CCc2c(-c3ccnc4[nH]ncc34)c(-c3ccc(F)cn3)nn2C1` (single isomer, unassigned) [Example 52, (*R)-4-[6-(Fluoromethyl)-2-(5-fluoro-2-pyridyl)-6-methyl-5,7-dihydro-4H-pyrazolo[1,5-a]pyridin-3-yl]-1H-pyrazolo[3,4-b]pyridine] are 11 nM and 1 nM.
On to `C[C@H]1OCc2c(-c3ccnc4[nH]ncc34)c(-c3ccc(F)cn3)nn2[C@H]1C` (single isomer, unassigned) [Example 116, (6*R,7*S)-2-(5-Fluoropyridin-2-yl)-6,7-dimethyl-3-(1H-pyrazolo[3,4-b]pyridin-4-yl)-6,7-dihydro-4H-pyrazolo[5,1-c][1,4]oxazine], for which the results for the IC50 in assay [1] and in assay [2] were 926 nM and 38 nM, respectively.
In the same order, the values of `[2H]C([2H])([2H])[C@]1(C(F)(F)F)Cn2nc(-c3ccc(F)cn3)c(-c3cc(C)nc4[nH]nc(C)c34)c2CO1` (single isomer, unassigned) [Example 428, (*R)-3-(3,6-Dimethyl-1H-pyrazolo[3,4-b]pyridin-4-yl)-2-(5-fluoropyridin-2-yl)-6-(methyl-d3)-6-(trifluoromethyl)-6,7-dihydro-4H-pyrazolo[5,1-c][1,4]oxazine] are 76 nM and 9 nM.
In the same order, the values of `Fc1ccc(-c2nn3c(c2-c2ccnc4[nH]ncc24)CCC3)nc1` [Example 7, 4-[2-(5-Fluoro-2-pyridyl)-5,6-dihydro-4H-pyrrolo[1,2-b]pyrazol-3-yl]-1H-pyrazolo[3,4-b]pyridine] are 136 nM and 7 nM.
The corresponding values for `Fc1ccc(-c2nn3c(c2-c2ccn4nccc4c2)CC[C@@H]2[C@H]3C2(F)F)cc1` (stereo in doubt) [Example 354, (5a*R,6a*S)-6,6-difluoro-2-(4-fluorophenyl)-3-(pyrazolo[1,5-a]pyridin-4-yl)-5,5a,6,6a-tetrahydro-4H-cyclopropa[e]pyrazolo[1,5-a]pyridine] are 71 nM and 18 nM.
Consider `CC1CCn2nc(-c3ccc(F)cn3)c(-c3ccnc4[nH]ncc34)c2O1` (single isomer, unassigned) [Example 198, (*S)-2-(5-Fluoro-2-pyridyl)-5-methyl-3-(1H-pyrazolo[3,4-b]pyridin-4-yl)-6,7-dihydro-5H-pyrazolo[5,1-b][1,3]oxazine], for which the IC50 in assay [1] came out at 59 nM; in assay [2], 3 nM.
The corresponding values for `Cc1cc(-c2c(-c3ccc(F)c(C)n3)nn3c2COC(C)(C)C3)c2c(C)n[nH]c2n1` [Example 393, 3-(3,6-Dimethyl-1H-pyrazolo[3,4-b]pyridin-4-yl)-2-(5-fluoro-6-methylpyridin-2-yl)-6,6-dimethyl-6,7-dihydro-4H-pyrazolo[5,1-c][1,4]oxazine] are 2740 nM and 49 nM.
The corresponding values for `Cc1n[nH]c2ncc(F)c(-c3c(-c4ccc(F)cn4)nn4c3CC[C@H]3[C@@H]4C3(F)F)c12` (single isomer, unassigned) [Example 359, (5a*S,6a*R)-6,6-Difluoro-3-(5-fluoro-3-methyl-1H-pyrazolo[3,4-b]pyridin-4-yl)-2-(5-fluoropyridin-2-yl)-5,5a,6,6a-tetrahydro-4H-cyclopropa[e]pyrazolo[1,5-a]pyridine] are more than 10000 nM and 1670 nM.
The corresponding values for `CC1(C)CCn2nc(-c3ccc(F)cc3)c(-c3ccnc4[nH]ncc34)c21` [Example 245, 4-[2-(4-Fluorophenyl)-4,4-dimethyl-5,6-dihydropyrrolo[1,2-b]pyrazol-3-yl]-1H-pyrazolo[3,4-b]pyridine] are 43 nM and 5 nM.
